Tests used:
[1] = Proton dissociation constants (pKa) of proligands by UV/Vis spectrophotometric titration; type: physicochemical; details: for % HL at pH 7.4: fraction of proligand in neutral zwitterionic HL form at pH 7.4, computed with pKa; for pKa: proligand, phenolic OH, I = 0.1 M (KCl), t = 25 °C, water, read-out: pKa (H2L+)
Method: An Agilent Carry 8454 diode array spectrophotometer was used to record the UV/Vis spectra in the interval 200–800 nm. The path length was 1 cm. Proton dissociation constants (pKa) of the TSC ligands, the overall stability constants of the copper(II) monoligand complexes (logβ) and the individual spectra of the species in the various protonation states and stoichiometry were calculated by the computer program PSEQUAD [44]. Spectrophotometric titrations were performed on samples containing the proligands at 50 μM concentration by a KOH solution in the presence of 0.1 M KCl at 25.0 ± 0.1 °C in the pH range from 2 to 11.5, and the metal-to-ligand ratio was 1:0, 1:1 and 1:2. An Orion 710A pH-meter equipped with a Metrohm combined electrode (type 6.0234.100) and a Metrohm 665 Dosimat burette were used for the titrations. […] The average water ionisation constant (pKw) is 13.76 ± 0.05 in water. Argon was also passed over the solutions during the titrations. Measurements were also carried out in the range of ca. 1.0–2.0 by preparing individual samples in which KCl was partially or completely replaced by HCl and pH values (between 1 and 2) were calculated from the strong acid content.

OCT2 = target: T1, OCT2 (Homo sapiens, UniProt O15244); experiment: [3H]-MPP+ uptake inhibition assay in HEK-293 cells; type: cell-based; details: for IC50: HEK cells stably expressing human OCT2, 10 min uptake; for interaction with OCT2: [3H]-MPP+ uptake inhibition in HEK OCT2 cells
T1 construct: expressed in transfected cells
T1 sequence (O15244 1-555): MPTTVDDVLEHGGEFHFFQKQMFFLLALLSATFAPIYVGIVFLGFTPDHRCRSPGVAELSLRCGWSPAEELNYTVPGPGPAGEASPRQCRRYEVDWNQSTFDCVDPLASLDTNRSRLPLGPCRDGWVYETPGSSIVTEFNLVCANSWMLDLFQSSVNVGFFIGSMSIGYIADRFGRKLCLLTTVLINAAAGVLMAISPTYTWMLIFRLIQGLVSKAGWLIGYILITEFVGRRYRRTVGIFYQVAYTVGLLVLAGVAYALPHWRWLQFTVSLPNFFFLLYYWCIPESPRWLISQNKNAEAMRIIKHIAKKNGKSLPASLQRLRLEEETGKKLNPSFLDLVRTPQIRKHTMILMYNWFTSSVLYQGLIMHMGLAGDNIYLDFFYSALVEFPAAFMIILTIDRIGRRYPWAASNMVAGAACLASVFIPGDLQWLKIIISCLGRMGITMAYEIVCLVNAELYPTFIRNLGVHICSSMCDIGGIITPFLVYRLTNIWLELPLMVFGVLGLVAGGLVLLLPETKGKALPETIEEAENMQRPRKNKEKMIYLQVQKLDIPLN
Method: (§1) HEK–293 cells (LGC Standards GmbH, Germany) stably expressing human isoforms of wild type organic cation transporters 1–3 (OCT1–3) were cultured in Dulbecco’s modified Eagle’s medium (DMEM; Sigma-Aldrich) with high glucose (4.5 g/L) and L-glutamine (584 mg/L) supplemented with 10% foetal calf serum (FCS; Biowest) and penicillin/streptomycin mixture (50 mg/L; Sigma/Aldrich) at 37 °C in a humidified atmosphere (5% CO2). The selection reagent was Geneticin (150 U/mL; Merck, Germany) for all three cell lines. Cells were seeded onto poly-D-lysine (0.05 mg/mL; Sigma-Aldrich) precoated clear bottom Corning 96 well white assay plate (Sigma-Aldrich) at the density of 4 × 10^4 cells per well 24 h prior to the experiment.
(§2) The assay was performed as previously described with slight modification. Briefly, on the day of the experiment, cells were washed once with 100 µL Krebs-HEPES buffer (KHB; 10 mM HEPES, 120 mM NaCl, 3 mM KCl, 2 mM CaCl2·2H2O, 2 mM MgCl2·6H2O, 5 mM D-(+)- glucose, pH 7.3) at room temperature. Cells were preincubated for 10 min in 50 µL of RT KHB containing increasing concentrations of tested compounds previously dissolved in dimethyl sulfoxide (DMSO; final concentration in working solution was 1%). After that, the preincubation solution was quickly removed and replaced with 50 µL of uptake solution containing the aforementioned components with the addition of 50 nM [^3H]-1-methyl-4-phenylpyridinium ([^3H]-MPP^+; 60 Ci/mmol; American Radiolabeled Chemicals, Saint Louis, MO, USA). After the 10 min uptake at RT, the transport was stopped by washing cells with 100 µL of ice-cold KHB and adding 200 µL of Ultima GoldTM XR scintillation cocktail (PerkinElmer, MA, USA). The plates were shaken, placed into Wallac 1450 MicroBeta TriLux Liquid Scintillation Counter and Lumi (GMI, Ramsey, MN, USA) and the released radioactivity was measured for 3 min. Nonspecific [^3H]-MPP^+ uptake was measured in the presence of 100 µM decynium-22 and the data were plotted as a percentage of uptake in the presence of 1% DMSO from which the value of the nonspecific uptake was subtracted. Nonlinear regression analysis (GraphPad Prism version 5.0, GraphPad Software, San Diego, CA, USA) was used for calculation of IC50 values.

OCT1 = target: T2, OCT1 (Homo sapiens, UniProt O15245); experiment: [3H]-MPP+ uptake inhibition assay in HEK-293 cells; type: cell-based; details: 10 min uptake; for IC50: HEK cells stably expressing human OCT1
T2 construct: expressed in transfected cells
T2 sequence (O15245 1-554): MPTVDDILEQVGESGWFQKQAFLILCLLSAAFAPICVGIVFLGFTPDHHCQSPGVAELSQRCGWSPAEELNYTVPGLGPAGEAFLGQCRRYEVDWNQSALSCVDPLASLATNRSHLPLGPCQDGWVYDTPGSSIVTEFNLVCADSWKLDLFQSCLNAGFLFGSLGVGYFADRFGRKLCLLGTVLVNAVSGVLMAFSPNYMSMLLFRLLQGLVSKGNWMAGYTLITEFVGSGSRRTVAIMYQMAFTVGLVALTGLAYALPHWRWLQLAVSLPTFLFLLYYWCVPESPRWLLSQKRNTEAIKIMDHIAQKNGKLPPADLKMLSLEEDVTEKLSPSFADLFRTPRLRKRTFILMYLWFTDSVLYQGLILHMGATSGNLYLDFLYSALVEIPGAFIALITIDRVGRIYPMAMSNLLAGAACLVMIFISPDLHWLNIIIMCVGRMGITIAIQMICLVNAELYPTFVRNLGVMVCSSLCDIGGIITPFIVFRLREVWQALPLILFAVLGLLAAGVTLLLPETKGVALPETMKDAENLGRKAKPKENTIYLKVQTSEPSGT
Method: as §1, §2

Compound	% HL at pH 7.4 [1]	pKa [1]	IC50 (OCT2)	IC50 (OCT1)	interaction with OCT2 (OCT2)	IC50 at 10 min (OCT1; HEK-293 cells stably expressing human OCT1, pH 7.3, probe [3H]-MPP+ (50 nM))
C[N+](C)(C)Cc1ccc(O)c(/C=N/NC(=S)Nc2ccccc2)c1 [[H2L^Ph]Cl]	70%	7.03 ± 0.01	371 ± 123 µM	119 ± 50 µM		
CNC(=S)N/N=C/c1cc(C[N+](C)(C)C)ccc1O [[H2L^Me]Cl]	42%	7.54 ± 0.01	> 4000 µM	391 ± 40 µM	no interaction	
C[N+](C)(C)Cc1ccc(O)c(/C=N/NC(N)=S)c1 [[H2L^H]Cl]	47%	7.46 ± 0.01	> 4000 µM	740 ± 195 µM	no interaction	740 µM
CCNC(=S)N/N=C/c1cc(C[N+](C)(C)C)ccc1O [[H2L^Et]Cl]	55%	7.31 ± 0.01	236 ± 97.1 µM	169 ± 26.2 µM		

Source: paper PMC7565988, “Insight into the Anticancer Activity of Copper(II) 5-Methylenetrimethylammonium-Thiosemicarbazonates and Their Interaction with Organic Cation Transporters” (Biomolecules, 2020)
